Test results taken from patent publication US20130102631A1, “NOVEL MICROBIOCIDAL DIOXIME ETHER DERIVATIVES” (SYNGENTA CROP PROTECTION LLC, priority 2010, published 2013).

Tests used:
Pyrenophora teres = Pyrenophora teres / barley / leaf disc preventative (net blotch); assay type: in vivo; settings: foliar, barley leaf segments cv Hasso, inoculated two days after application, assessed 5-7 days after application
Experimental: Pyrenophora teres/Barley/Leaf Disc Preventative (Net Blotch): Barley leaf segments cv Hasso are placed on agar in a 24-well plate and sprayed with formulated test compound diluted in water at an application rate of 200 ppm. The leaf segments are inoculated with a spore suspension of the fungus two days after application of the test solution. The inoculated leaf segments are incubated at 20° C. and 65% relative humidity under a light regime of 12/12 h (light/dark) in a climate cabinet and the activity of a compound is assessed as disease control compared to untreated when an appropriate level of disease damage appears in untreated check leaf segments (5-7 days after application). […]-2.507; 5.561; 2.561; E/E-2.208; P.57; 2.513; 2.559; 2.558; 2.556; 2.555; 2.374; 2.552; 2.544; 2.537; 2.533; 2.530; 2.528; 2.519; 2.510; 2.516; 2.514; E/E-5.167; E/E-3.002; 2.512

[1] = tested on: Mycosphaerella arachidis (Cercospora arachidicola); assay: Mycosphaerella arachidis (Cercospora arachidicola) / liquid culture (early leaf spot); assay type: cell-based; settings: at ≦200 ppm, liquid culture PDB, inhibition of growth photometrically 4-5 days after application, read-out: control of Mycosphaerella arachidis
Procedure, shortened: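 Cryostored Cercospora arachidicola conidia were mixed into potato dextrose broth and added to test compound in DMSO. Incubation was at 24° C. Growth inhibition was read photometrically 4-5 days after application.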

[2] = tested on: Phaeosphaeria nodorum (Septoria nodorum); assay: Phaeosphaeria nodorum (Septoria nodorum) / wheat / leaf disc preventative (glume blotch); assay type: in vivo; settings: Parastagonospora nodorum, foliar, wheat leaf segments cv Kanzler, inoculated 2 days after application, assessed 5-7 days after application
Procedure, shortened: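 Wheat cv Kanzler leaf segments on agar were sprayed with formulated compound at 200 ppm and inoculated with spores 2 days later. Incubation at 20 °C, 75% RH, 12/12 h light/dark; percent disease control versus untreated scored 5–7 days after application.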

[3] = tested on: Puccinia recondita f. sp. tritici; assay: Puccinia recondita f. sp. tritici / wheat / leaf disc preventative (brown rust); assay type: in vivo; settings: foliar, wheat leaf segments cv Kanzler, inoculated 1 day after application, assessed 7-9 days after application
Experimental: Puccinia recondita f. sp. Tritici/Wheat/Leaf Disc Preventative (Brown Rust): Wheat leaf segments cultivated variety (cv) Kanzler were placed on agar in 24-well plates and sprayed with formulated test compound diluted in water at an application rate of 200 ppm. The leaf disks were inoculated with a spore suspension of the fungus 1 day after application. The inoculated leaf segments were incubated at 19° C. and 75% relative humidity under a light regime of 12/12 h (light/dark) in a climate cabinet and the activity of a compound was assessed as percent disease control compared to untreated when an appropriate level of disease damage appears in untreated check leaf segments (7-9 days after application). […]-2.508; 5.561; 2.561; 2.513; 2.559; 2.556; 2.555; 2.374; 2.544; 2.537; 2.530; 2.525 (fraction B); 2.519; 2.516; 2.514; E/E-5.167; E/E-3.002; 2.512; E/E-2.507

Cc1ccc(O)c(/C=N/OCC(C)(C)CO/N=C2\CCCc3ccc(C)nc32)n1 [Compound 2.533]
≥ 80%: pest or weed control at 200 ppm (Pyrenophora teres) | inhibition of growth at up to 200 µg/mL [1] | pest or weed control at 200 ppm [2]

Cc1ccc2c(n1)/C(=N/OCC(C)(C)CO/N=C/c1cccc(Oc3ccccc3)n1)CCC2 [Compound 2.530]
≥ 80%: pest or weed control at 200 ppm (Pyrenophora teres) | pest or weed control at 200 ppm [3] | inhibition of growth at up to 200 µg/mL [1] | pest or weed control at 200 ppm [2]

C/C(=N\OCCCO/N=C1\CCCc2ccc(C)nc21)c1cccc(-c2ccccc2)n1 [Compound 2.514]
≥ 80%: pest or weed control at 200 ppm (Pyrenophora teres) | pest or weed control at 200 ppm [3] | inhibition of growth at up to 200 µg/mL [1] | pest or weed control at 200 ppm [2]

CC/C(=N\OCC(C)(C)CO/N=C1\CCCc2ccc(C)nc21)c1ccccn1 [Compound 2.516]
≥ 80%: pest or weed control at 200 ppm (Pyrenophora teres) | pest or weed control at 200 ppm [3] | inhibition of growth at up to 200 µg/mL [1] | pest or weed control at 200 ppm [2]

C/C(=N\OCC(C)(C)CO/N=C1\CCCc2ccc(C)nc21)c1ccc2ccccc2n1 [Compound 2.512]
≥ 80%: pest or weed control at 200 ppm (Pyrenophora teres) | pest or weed control at 200 ppm [3] | inhibition of growth at up to 200 µg/mL [1] | pest or weed control at 200 ppm [2]

C/C(=N\OCC1(CO/N=C2\CCCc3c2nc2ccccc2c3C)CC1)c1cc(C)cc(C)n1 [Compound 5.561]
≥ 80%: pest or weed control at 200 ppm (Pyrenophora teres) | pest or weed control at 200 ppm [3] | inhibition of growth at up to 200 µg/mL [1] | pest or weed control at 200 ppm [2]

C/C(=N\OCC(C)(C)CO/N=C1\CCCc2ccc(C)nc21)c1cccc(C)n1 [E/E-2.002]
≥ 80%: pest or weed control at 200 ppm (Pyrenophora teres) | pest or weed control at 200 ppm [3] | inhibition of growth at up to 200 µg/mL [1] | pest or weed control at 200 ppm [2]

Cc1cccc(/C(=N/OCC(C)(C)CO/N=C2\CCCc3ccc(C)nc32)c2ccccc2)n1 [E/E-2.474]
≥ 80%: pest or weed control at 200 ppm (Pyrenophora teres) | pest or weed control at 200 ppm [3] | inhibition of growth at up to 200 µg/mL [1] | pest or weed control at 200 ppm [2]

C/C(=N\OCC(C)(C)CO/N=C1\CCCc2ccc(C)nc21)c1ccc2c(n1)CCCC2 [Compound 2.513]
≥ 80%: pest or weed control at 200 ppm (Pyrenophora teres) | pest or weed control at 200 ppm [3] | inhibition of growth at up to 200 µg/mL [1] | pest or weed control at 200 ppm [2]

C/C(=N\OCC(C)(C)CO/N=C1\CCCc2ccc(C)nc21)c1cccc(Br)n1 [E/E-2.508]
≥ 80%: pest or weed control at 200 ppm [3] | inhibition of growth at up to 200 µg/mL [1] | pest or weed control at 200 ppm [2]

Cc1ccc2c(n1)/C(=N/OCC(C)(C)CO/N=C/c1ccc3ccccc3n1)CCC2 [E/E-2.507]
≥ 80%: pest or weed control at 200 ppm (Pyrenophora teres) | pest or weed control at 200 ppm [3] | inhibition of growth at up to 200 µg/mL [1] | pest or weed control at 200 ppm [2]

C/C(=N\OCC(C)(C)CO/N=C1\CCCc2ccc(Oc3ccccc3)nc21)c1cc(C)cc(C)n1 [Compound 2.556]
≥ 80%: pest or weed control at 200 ppm (Pyrenophora teres) | pest or weed control at 200 ppm [3] | inhibition of growth at up to 200 µg/mL [1] | pest or weed control at 200 ppm [2]

COc1cccc(/C(C)=N/OCC(C)(C)CO/N=C2\CCCc3ccc(C)nc32)n1 [Compound 2.374]
≥ 80%: pest or weed control at 200 ppm (Pyrenophora teres) | pest or weed control at 200 ppm [3] | inhibition of growth at up to 200 µg/mL [1] | pest or weed control at 200 ppm [2]

C/C(=N\OCC(C)(C)CO/N=C1\CCCc2ccc(C)nc21)c1cc(C)cc(C)n1 [E/E-2.168]
≥ 80%: pest or weed control at 200 ppm (Pyrenophora teres) | pest or weed control at 200 ppm [3] | inhibition of growth at up to 200 µg/mL [1] | pest or weed control at 200 ppm [2]

C/C(=N\OCC(C)(C)CO/N=C1\CCCc2c1nc1ccccc1c2C)c1cc(C)cc(C)n1 [Compound 2.561]
≥ 80%: pest or weed control at 200 ppm (Pyrenophora teres) | pest or weed control at 200 ppm [3] | inhibition of growth at up to 200 µg/mL [1] | pest or weed control at 200 ppm [2]

C/C(=N\OCC1(CO/N=C2\CCCc3ccc(C)nc32)CC1)c1cc(C)cc(C)n1 [E/E-5.167]
≥ 80%: pest or weed control at 200 ppm (Pyrenophora teres) | pest or weed control at 200 ppm [3] | inhibition of growth at up to 200 µg/mL [1] | pest or weed control at 200 ppm [2]

C/C(=N/OCC(C)(C)CO/N=C1\CCCc2ccc(C)nc21)c1ccccn1 [Compound 2.519]
≥ 80%: pest or weed control at 200 ppm (Pyrenophora teres) | pest or weed control at 200 ppm [3] | inhibition of growth at up to 200 µg/mL [1] | pest or weed control at 200 ppm [2]

C=C(CO/N=C(\C)c1cccc(C)n1)CO/N=C1\CCCc2ccc(C)nc21 [E/E-3.002]
≥ 80%: pest or weed control at 200 ppm (Pyrenophora teres) | pest or weed control at 200 ppm [3] | inhibition of growth at up to 200 µg/mL [1] | pest or weed control at 200 ppm [2]

C/C(=N\OCC(C)(C)CO/N=C1\CCCc2ccc(-c3cccc(C)n3)nc21)c1cc(C)cc(C)n1 [Compound 2.559]
≥ 80%: pest or weed control at 200 ppm (Pyrenophora teres) | pest or weed control at 200 ppm [3] | inhibition of growth at up to 200 µg/mL [1] | pest or weed control at 200 ppm [2]

C/C(=N\OCC(C)(C)CO/N=C1\CCCc2ccc(Cl)nc21)c1cc(C)cc(C)n1 [Compound 2.555]
≥ 80%: pest or weed control at 200 ppm (Pyrenophora teres) | pest or weed control at 200 ppm [3] | inhibition of growth at up to 200 µg/mL [1] | pest or weed control at 200 ppm [2]
